Test results reported in patent US5444042A, “Method of treatment of neurodegeneration with calpain inhibitors” (Cortex Pharmaceuticals, priority 1994, dated 1995).
Where a SMILES comes first, the peptide text is derived from it. The star is where a group is joined. Boc = CC(C)(C)OC(=O)*; CH2Cl = ClC*

What was measured:
[1] = test system: N18-RE-105 cells; experiment: Glutamate-induced cell death, MTT conversion (Example 5); type: cell-based; conditions: 5 mM glutamate, 19 hours; for blue formazan product relative to control without glutamate: inhibitor 3 μg/ml
Procedure: Stock cultures of N18-RE-105 cells were maintained in Dulbecco's modified Eagle's medium (DMEM) containing 10% fetal bovine serum (FBS) and supplemented with hypoxanthine, aminopterin and thymidine (HAT). Subconfluent cultures were split and plated into 96-well plates. Twenty-four hours after plating the cells were exposed to fresh media containing glutamate and various concentrations of Calpain inhibitors. Control cells were not treated with glutamate. Conversion of MTT was measured 19 hours later as described. Nineteen hours after the onset of exposure, cell viability was quantitated by measuring the extent to which the cells convert 3(4,5-dimethylthiazol-2-yl)-2-5-diphenyltetrazolium bromide (MTT) to a blue formazan product, which occurs in the mitochondria of living but not dead cells (Pauwels et al., 1988). A higher absorbance is indicative of greater cell viability.

[2] = target: T1, Calpain I from human erythrocytes (Homo sapiens, UniProt P07384); experiment: Calpain I inhibition, Suc-Leu-Tyr-AMC (Table PKC1); type: biochemical; conditions: 20 mM Hepes, 10 mM CaCl2, 10 mM β-mercaptoethanol, pH 7.2; read-out: Ki CI (Calpain I)
T1 construct: Calpain I from human erythrocytes and calpain II from rabbit were assayed using Suc-Leu-Tyr-AMC; from tissue; host or cells: human erythrocytes
T1 sequence (P07384 1-714): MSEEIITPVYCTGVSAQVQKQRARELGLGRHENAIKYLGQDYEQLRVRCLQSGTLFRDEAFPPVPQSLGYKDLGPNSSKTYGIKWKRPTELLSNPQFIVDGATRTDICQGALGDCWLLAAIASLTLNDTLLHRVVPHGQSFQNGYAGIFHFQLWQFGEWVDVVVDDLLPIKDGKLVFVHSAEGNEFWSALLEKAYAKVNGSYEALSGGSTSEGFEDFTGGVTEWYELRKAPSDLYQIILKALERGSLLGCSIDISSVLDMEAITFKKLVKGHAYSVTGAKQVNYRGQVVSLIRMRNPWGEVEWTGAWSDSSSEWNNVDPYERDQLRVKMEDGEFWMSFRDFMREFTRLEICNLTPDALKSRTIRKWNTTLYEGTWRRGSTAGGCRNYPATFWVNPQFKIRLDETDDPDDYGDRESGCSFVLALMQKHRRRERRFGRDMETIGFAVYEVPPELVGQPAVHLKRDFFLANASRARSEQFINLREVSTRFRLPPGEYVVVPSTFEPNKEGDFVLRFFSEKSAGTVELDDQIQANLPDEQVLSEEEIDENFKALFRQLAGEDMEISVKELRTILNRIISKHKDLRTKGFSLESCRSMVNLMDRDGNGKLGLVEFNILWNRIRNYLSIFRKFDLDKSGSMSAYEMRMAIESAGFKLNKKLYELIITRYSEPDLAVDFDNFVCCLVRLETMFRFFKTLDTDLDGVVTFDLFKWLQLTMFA
T1 sequence (P04632 1-268 partner): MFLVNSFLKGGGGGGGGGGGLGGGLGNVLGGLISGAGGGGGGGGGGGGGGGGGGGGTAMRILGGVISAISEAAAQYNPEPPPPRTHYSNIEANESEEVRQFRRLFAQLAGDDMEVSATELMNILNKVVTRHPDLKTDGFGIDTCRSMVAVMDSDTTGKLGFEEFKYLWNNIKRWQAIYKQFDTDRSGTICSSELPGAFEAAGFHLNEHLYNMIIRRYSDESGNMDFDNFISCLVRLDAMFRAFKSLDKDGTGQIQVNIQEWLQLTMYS
Procedure: Our discovery of Peptide Keto-Compounds effective as Calpain Inhibitors was made through assay of the Peptide Keto-Compounds as reversible inhibitors. Various concentrations of inhibitors in dimethylsulfoxide (DMSO) were added to the assay mixture, which contained buffer and substrate. The reaction was started by the addition of the enzyme and the hydrolysis rates were followed spectrophotometrically or fluorimetrically. 88 mM KH2 PO4, 12 mM Na2 HPO4, 1.33 mM EDTA, 2.7 mM cysteine, pH 6.0 was used as a buffer for cathepsin B; and 20 mM Hepes, 10 mM CaCl2, 10 mM β-mercaptoethanol, pH 7.2 buffer was utilized for calpain I and calpain II.
All peptide thioester hydrolysis rates were measured with assay mixtures containing 4,4'-dithiodipyridine [e324=19800 M-1 cm-1; Grasetti & Murray, Arch. Biochem. Biophys. 119, pp 41-49 (1967)]. Papain was assayed with Bz-Arg-AMC or Bz-Arg-NA [Kanaoka et al., Chem. Pharm. Bull. 25, 3126-3128 (1977)], and the AMC (7-amino-4-methylcoumarin) release was followed fluorimetrically (excitation at 380 nm, and emission at 460 nm). Cathepsin B was assayed with Z-Arg-Arg-AFC [Barrett and Kirschke, Methods Enzymol. 80, 535-561 (1981)], and the AFC (7-amino-4-trifluoromethylcoumarin) release was followed fluorimetrically (excitation at 400 nm, and emission at 505 nm). Calpain I from human erythrocytes and calpain II from rabbit were assayed using Suc-Leu-Tyr-AMC [Sasaki et al., J. Biol. Chem. 259, 12489-12494 (1984), hereby incorporated by reference], and the AMC (7-amino-4-methylcoumarin) release was followed fluorimetrically (excitation at 380 nm, and emission at 460 nm). Enzymatic hydrolysis rates were measured at various substrate and inhibitor concentrations, and Ki values were determined by Dixon plot.

[3] = test system: hippocampal slices; experiment: Hippocampal slice evoked potential recovery after anoxia (Example 7B); type: cell-based, rat
Procedure: As in Example 7A, hippocampal slices (400 μm) were prepared from Sprague Dawley rats (6-7 weeks) and maintained in an interface chamber at 35° C. using conventional techniques, i.e. the lower surface of the slice received a constant perfusion (0.5 ml/min) of an artificial cerebrospinal fluid (ACSF), while the upper surface was exposed to a moist atmosphere of O2 :CO2 (95%:5%) exchanged at a rate of 2 L/min. The ACSF medium contains (in mM): NaCl (124), KCl (3), KHPO4 (1.25), MgSO4 (2.5), CaCl2 (3.4), NaHCO3 (26) and D-Glucose (10). Field excitatory post-synaptic responses were recorded from stratum radiatum of CA1b in response to stimulation of Schaffer-commissural fibers in CA1a or CA1c. The depth of the recording electrode was optimized and evoked responses were collected at a rate of one evoked response every 30 seconds.
After establishing a stable baseline of evoked responses (approximately 10 minutes), ACSF containing Calpain Inhibitor was washed into the chamber and slices were incubated for a period of one hour. After incubation, evoked responses were again recorded and the change in the amplitude of the responses from baseline levels was noted. No effect of the inhibitors tested on baseline evoked responses was observed.
For anoxia experiments, incubation in the drug-containing medium was followed by replacement of the O2 :CO2 (95%:5%) atmosphere with N2 :CO2 (95%:5%). Slices were exposed to this anoxic environment until disappearance of the pre-synaptic fiber volley and for two minutes (severe anoxia) longer (total time in anoxic environment approximately 7-8 minutes in control case). Effects of Calpain Inhibitors on the functional recovery of the slices after the anoxic episode were then measured. Recovery of the evoked potential (EPSP) slope and amplitude by the drug treated slices can be compared to control slices to determine the relative efficacy of various Calpain Inhibitors.

[4] = Concentration 100, ten minutes anoxia

SMILES | blue formazan product relative to control without glutamate [1] [%] | Ki [2] [nM] | other results
CCOC(=O)C(=O)C(CC)NC(=O)[C@H](C)NC(=O)[C@H](C)NC(=O)OCc1ccccc1 (mixture of isomers) [Z-Ala-Ala-DL-Abu-COOEt, Z-Ala-Ala-DL-Abu-CO2 Et] | ≥ 100 | 50000 | 
CCCCC(NC(=O)C(CC(C)C)NC(=O)OCc1ccccc1)C(=O)C(=O)OCC (stereo not drawn) [Z-Leu-Nle-COOEt, Z-Leu-NLeu-CO2 Et] |  | 120 | 
CCC(NC(=O)[C@@H]1CCCN1C(=O)[C@H](C)NC(=O)[C@H](C)NC(=O)CCC(=O)OC)C(=O)C(=O)OC (mixture of isomers) [MeO-Suc-Ala-Ala-Pro-Abu-COOMe, MeO-Suc-Ala-Ala-Pro-DL-Abu-CO2 Me] |  | 100000 | 
CC(=O)N[C@@H](CC(C)C)C(=O)N[C@@H](CC(C)C)C(=O)N[C@H](C=O)CCCNC(=N)N [Leupeptin, Ac-Leu-Leu-Arg-H, reference compound] |  |  | protection against glutamate toxicity ([1]; leupeptin 5 μg/ml): protect N18-RE-105 cells against glutamate toxicity
CCOC(=O)C(=O)C(Cc1ccccc1)NC(=O)C(CC(C)C)NC(=O)OCc1ccccc1 (stereo not drawn) [Z-Leu-Phe-COOEt] |  | 230 | % Recovery of synaptic transmission after anoxia [3, 4]: 38%; period of anoxia required to produce fiber volley disappearance (FIG. 6) ([3]; hippocampal slices): substantially lengthens the period of exposure to anoxia required to produce FVD
CC(C)CC(NC(=O)CNC(=O)OC(C)(C)C)C(=O)NC(Cc1ccccc1)C(=O)CCl (stereo not drawn) [Boc-Gly-Leu-Phe-CH2 Cl] (Boc-Gly-Leu-Phe-CH2Cl; configuration not given here) |  |  | % Recovery of synaptic transmission after anoxia ([3]; Concentration 50, ten minutes anoxia): 30%
N=C(N)SCCCOc1oc(=O)c2ccccc2c1Cl [CiTprOIC, 4-chloro-3-(3-isothiureidopropoxy)isocoumarin] | ≥ 100 |  | 
CCOC(=O)C(=O)[C@H](CC)NC(=O)[C@H](CC(C)C)NC(=O)OCc1ccccc1 (racemic) [Z-Leu-Abu-COOEt, Z-Leu-DL-Abu-COOEt] |  | 40 | % Recovery of synaptic transmission after anoxia [3, 4]: 55%; recovery of EPSP amplitude from severe anoxia (FIG. 4) ([3]; severe anoxia, 2 minutes post fiber volley disappearance): superior to that seen with CI1
N=C(N)SCCCOc1oc(=O)c2cc(N)ccc2c1Cl [NH2 -CiTPrOIC (ACITIC), 7-amino-4-chloro-3-(3-isothiureidopropoxy)isocoumarin] | ≥ 100 |  | % Recovery of synaptic transmission after anoxia ([3]; Concentration 20, ten minutes anoxia): 60%
